Reference: article PMC11106165, “Repurposing the KCa3.1 Blocker Senicapoc for Ischemic Stroke” (Translational Stroke Research, 2023)
“And” between values parts separate entries of the source, which are not always exact repeats. Equal values may be shown once.

What was measured:
human tPA = biological target: T1, human tPA (Homo sapiens, UniProt P00750); assay: Chromogenic tPA activity assay; format: biochemical; conditions: 0.5 μM and 5 μM, 30-min assay, PBS with 10% human serum
T1 construct: purchased Abcam ab108905
T1 sequence (P00750 36-562): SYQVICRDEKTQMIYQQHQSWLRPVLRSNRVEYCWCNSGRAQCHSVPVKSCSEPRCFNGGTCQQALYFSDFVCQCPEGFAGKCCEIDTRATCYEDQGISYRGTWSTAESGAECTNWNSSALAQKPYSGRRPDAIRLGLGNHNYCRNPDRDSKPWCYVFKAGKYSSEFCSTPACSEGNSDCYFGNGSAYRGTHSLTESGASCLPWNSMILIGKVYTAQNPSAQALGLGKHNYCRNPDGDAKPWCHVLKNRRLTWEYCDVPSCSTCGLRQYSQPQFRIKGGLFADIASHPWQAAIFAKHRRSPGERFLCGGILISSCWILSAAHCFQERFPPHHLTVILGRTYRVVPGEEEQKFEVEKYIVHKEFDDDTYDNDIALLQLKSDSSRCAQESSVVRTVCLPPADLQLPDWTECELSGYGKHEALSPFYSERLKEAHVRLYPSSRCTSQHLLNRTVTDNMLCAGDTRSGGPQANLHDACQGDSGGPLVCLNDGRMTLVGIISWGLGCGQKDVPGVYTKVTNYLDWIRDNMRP
Description: The commercially available tPA Activity Assay Kit (Abcam, ab108905) was used to assess whether senicapoc and TRAM-34 affect the ability of human tPA to cleave its substrate plasminogen similar to protocols published by Lapchak and Boitano [38] and Lapchak et al.. Reactions were run in optically clear flat-bottom 96-well plates (Corning, Catalog #3904). Human plasminogen activator inhibitor-1 (PAI-1; Sigma-Aldrich CC4075) was used as a positive control. Human plasminogen, the chromogenic plasmin substrate, and human tPA were included in the tPA Activity Assay Kit. […] The reactions were pre-incubated at 37 °C for 5 min prior to the addition of the chromogenic plasmin substrate and subsequently placed in a heated SpectraMax M5 spectrophotometer. Absorbances at 405 nm were measured every 30 s for 30 min.

[1] = system: male C57BL/6 J mice, tMCAO; assay: RT-qPCR of inflammatory markers in brain on day 8 after tMCAO; format: in vivo, mouse
Protocol: After MRIs were completed, mice were euthanized with an overdose of isoflurane, brains harvested, split into ipsilateral and contralateral hemispheres, and immediately frozen with liquid N2. Brain hemispheres were homogenized in mortar and pestles with liquid N2. RNA was extracted from brain homogenates (Fig. 7b) or MMC cell pellets (Fig. 2) with Trizol (ThermoFisher, Catalog # 15,596,026) according to the manufacturer’s protocol. RNA purity and concentration were assessed using a Nanodrop Spectrophotometer ND-1000 (Marshall Scientific). The 260 nm/280 nm absorption ratios for the samples ranged from 1.95 to 2.00. Subsequently, a cDNA library was made with a High-Capacity cDNA Reverse Transcription Kit (ThermoFisher Scientific, Catalog# 4,374,967), with 2 µg of total RNA per […]. Reactions were carried out in a PTC-200 Peltier Thermal Cycler; the conditions were as follows: 25 °C for 10 min, 37 °C for 120 min, 85 °C for 5 min, with final storage at 4 °C. RT-qPCR reactions were conducted in an Applied Biosystems Viia7 Real-Time PCR System using Maxima SYBR Green/ROX qPCR Master Mix (ThermoFisher Scientific, Catalog #K022) and with the recommended three-step cycling protocol. All CT values were normalized to the geometric mean of three housekeeping genes, β-actin, GAPDH, and 18S, as recommended by Vandesompele et al.. Fold change was calculated by the ∆∆Ct method. Primer sequences are provided in Supplementary Table 1. For brain samples, relative mRNA levels were generated by normalizing to sham.
Statistical analysis of infarct percentage comparing two groups was performed using unpaired t-test. Statistical analysis of three groups (e.g., vehicle vs senicapoc 10 mg/kg vs senicapoc 40 mg/kg) was performed with analysis of variance (ANOVA) with a post hoc pair-wise comparison using Tukey’s test (Origin software), as previously described. All data are shown as box-and-whisker plots with an overlay of the individual animal data. The boxes show mean ± S.E.M, and the whiskers show confidence intervals. The categorical neurological scoring data in Fig. 3 b is shown as a scatter plot without means or S.E.M and was analyzed with the Mann–Whitney U test as per recommendations for optimal presentation and analysis of non-parametric data in pre-clinical stroke studies by Dirnagl. For the IHC data in Fig. 5 comparing two groups, unpaired t-tests were performed. The brain qPCR data in Fig. 7 was analyzed in Prism using one-way ANOVA followed by Dunnett’s test to correct for multiple comparisons. For all statistical testing, P < 0.05 was used as the level of significance. * = P < 0.05, ** = P < 0.01, *** = P < 0.001.

KCa3.1 = biological target: T2, KCa3.1 (Mus musculus, UniProt O89109); assay: Whole-cell patch-clamp of KCa3.1 currents in mouse microglial cells (MMC); format: cell-based; conditions: 1 µM free Ca2+, ramp -120 to +40 mV, mean ± 95% confidence interval, n = 4, read-out: IC50 for block of microglial KCa3.1 currents
T2 construct: endogenous in cells; host or cells: immortalized mouse microglial cell (MMC) line
Protocol: An immortalized mouse microglial cell (MMC) line was kindly provided by Dr. D.T. Golenbock (University of Massachusetts Medical School, Worcester, MA) and previously used by our laboratory. Cells were cultured in Gibco’s Dulbecco’s modified Eagle’s Medium (DMEM, high glucose, L-glutamine, high pyruvate) with 5% CO2 at 37° with 1% penicillin/streptomycin and 10% fetal bovine serum. For the qPCR experiments, cells were seeded at 200,000 cells/mL; 24 h later, medium was changed to DMEM with 2% FBS and cells were stimulated with 100 ng/mL lipopolysaccharide (LPS), in the presence or absence of senicapoc, or a 0.2% DMSO control. Cells were pre-incubated with senicapoc for 1 h prior to stimulation and harvested 24 h after stimulation.
MMCs were plated on poly-lysine-coated glass coverslips and KCa3.1 currents recorded in the whole-cell mode of the patch-clamp technique with an EPC-10 HEKA amplifier and 1 microM of free Ca^2+ in the pipette solution as previously described.

[2] = fold-change relative to sham, day 8, adjusted P 0.01
[3] = fold-change relative to sham, day 8, adjusted P <0.001

NC(=O)C(c1ccccc1)(c1ccc(F)cc1)c1ccc(F)cc1 [senicapoc]
effect on tPA activity (absorbance at 405 nm) (human tPA): no effect | expression of IL-1β, TNF-α, IL-6, CD68, NLRP3, IL-2, IFN-γ, IL-4 and IL-10 in the infarcted hemisphere ([1]; 40 mg/kg started 3 h, day 8, vs vehicle): significantly reduced | il1b mRNA, Mean Diff. vehicle-treated ipsi vs senicapoc-treated ipsi ([1]; fold-change relative to sham, day 8, 40 mg/kg started 3 h, adjusted P <0.001): 3.115 | tgfb mRNA, Mean Diff. vehicle-treated ipsi vs senicapoc-treated ipsi ([1]; fold-change relative to sham, day 8, adjusted P 0.003): 2.876 | il4 mRNA, Mean Diff. vehicle-treated ipsi vs senicapoc-treated ipsi [1, 2]: 2.833 | nlrp3 mRNA, Mean Diff. vehicle-treated ipsi vs senicapoc-treated ipsi [1, 2]: 4.839 | inos mRNA, Mean Diff. vehicle-treated ipsi vs senicapoc-treated ipsi ([1]; fold-change relative to sham, day 8, adjusted P 0.48): 6.938 | bdnf mRNA, Mean Diff. vehicle-treated ipsi vs senicapoc-treated ipsi ([1]; fold-change relative to sham, day 8, adjusted P 0.79): -11.09 | il17a mRNA, Mean Diff. vehicle-treated ipsi vs senicapoc-treated ipsi ([1]; fold-change relative to sham, day 8, adjusted P 0.98): 0.3131 | cd68 mRNA, Mean Diff. vehicle-treated ipsi vs senicapoc-treated ipsi [1, 3]: 12.76 | ifng mRNA, Mean Diff. vehicle-treated ipsi vs senicapoc-treated ipsi [1, 3]: 8.327 | il2 mRNA, Mean Diff. vehicle-treated ipsi vs senicapoc-treated ipsi [1, 3]: 10.6 | il6 mRNA, Mean Diff. vehicle-treated ipsi vs senicapoc-treated ipsi [1, 3]: 7.107 | il10 mRNA, Mean Diff. vehicle-treated ipsi vs senicapoc-treated ipsi [1, 3]: 13.82 | tnfa mRNA, Mean Diff. vehicle-treated ipsi vs senicapoc-treated ipsi [1, 3]: 6.221 | IC50 (KCa3.1): 7 nM and 6.97 nM
